Patent US9540323B2 (BRISTOL-MYERS SQUIBB COMPANY, priority 2012, dated 2017)

Columns and labels:
[1] = system: human platelet rich plasma (PRP); assay: ADP induced platelet aggregation assay; settings: Homo sapiens, Platelet, 5 min, read-out: PA IC50 (μM) @ 10 μM ADP, human PRP, 10 μM ADP, AUC at 5 minute
Protocol: The ability of P2Y1 antagonists covered in the present invention to inhibit platelet aggregation induced by 10 μM ADP was tested using human platelet rich plasma (PRP) as described in Platelet Protocols: Research and Clinical Laboratory Procedures (White, M. M. et al., Academic Press (1999)). Human blood was collected in 30 μM (final concentration in blood) argatroban (GSK) as the anticoagulant at a ratio of 1 mL per 9 mL of blood. The PRP was isolated by centrifugation at 170 g for 12 minutes. The platelet poor plasma (PPP) was used as the blank for optical aggregometry. Compounds of the present invention in DMSO solution was preincubated with 250 μL PRP at 37° C. for 1 minute with stirring speed of 1000 rpm. Aggregation was initiated by addition of 2.5 μL of 1 mM ADP (Chrono-log, Havertown, Pa.) for a final ADP concentration of 10 μM. Platelet aggregation was monitored using Optical Aggregometer (Chrono-log, Havertown, Pa.) and the area under the curve (AUC) at 5 minute was measured. IC50 was calculated using vehicle control as 0% inhibition.

[2] = molecular target: cloned human P2Y1 receptors (Homo sapiens (Human), UniProt P47900); assay: Binding Assay B - Scintillation Proximity Assay (SPA) for P2Y1 binding, [33P] 2MeS-ADP; settings: SPA, 0.3 nM [33P] 2MeS-ADP, Cheng-Prusoff; read-out: P2Y1 Ki (nM) using binding assay B
Protocol: Binding Assay B—Scintillation Proximity Assay (SPA) for P2Y1 Binding
A SPA membrane binding assay was used to identify inhibitors of [^33P] […] Reactions were allowed to proceed to completion at room temperature for 1 hour followed by centrifugation of the plate for 5 min. About 40 μL of the aqueous solution was aspirated. Plates were sealed and the [^33P]

cloned human P2Y1 receptors, sequence (P47900 whole entry): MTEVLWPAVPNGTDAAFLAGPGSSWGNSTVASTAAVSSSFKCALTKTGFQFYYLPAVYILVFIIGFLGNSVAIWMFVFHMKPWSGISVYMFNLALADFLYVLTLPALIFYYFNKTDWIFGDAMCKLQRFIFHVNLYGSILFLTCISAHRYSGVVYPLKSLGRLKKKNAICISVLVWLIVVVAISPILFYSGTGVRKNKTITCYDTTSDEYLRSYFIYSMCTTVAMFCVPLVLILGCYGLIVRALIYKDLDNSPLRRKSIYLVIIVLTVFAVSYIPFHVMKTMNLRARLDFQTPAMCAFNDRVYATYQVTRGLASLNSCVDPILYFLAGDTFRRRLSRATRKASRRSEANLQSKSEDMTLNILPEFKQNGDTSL

Compound	IC50 [1]	Ki [2]
CC1(C)CN(c2ccccc2NC(=O)Nc2csc(Cl)n2)c2c(O)ccc(-c3nc4cc(Cl)ccc4s3)c21 [Example 147, 1-(2-(4-(5-Chlorobenzo[d]thiazol-2-yl)-7-hydroxy-3,3-dimethylindolin-1-yl)phenyl)-3-(2-chlorothiazol-4-yl)urea]	0.77 µM	70.8 nM
CC1(C)CN(c2ccccc2NC(=O)Nc2ccc(OC(F)(F)F)cc2)c2c(O)cc(F)c(-c3nc4ccc(Cl)cc4s3)c21 [Example 148, 1-(2-(4-(6-Chlorobenzo[d]thiazol-2-yl)-5-fluoro-7-hydroxy-3,3-dimethylindolin-1-yl)phenyl)-3-(4-(trifluoromethoxy)phenyl)urea]	0.68 µM	83 nM
CC1(C)CN(c2ccccc2NC(=O)Nc2ccc(OC(F)(F)F)cc2)c2c(O)cc(F)c(-c3ccc(C(F)(F)F)cn3)c21 [Example 149, 1-(2-(5-Fluoro-7-hydroxy-3,3-dimethyl-4-(5-(trifluoromethyl)pyridin-2-yl)indolin-1-yl)phenyl)-3-(4-(trifluoromethoxy)phenyl)urea]	0.11 µM	13 nM
CC1(C)CN(c2ccccc2NC(=O)Nc2csc(Cl)n2)c2c(O)cc(F)c(-c3nc4ccc(F)cc4s3)c21 [Example 150, 1-(2-Chlorothiazol-4-yl)-3-(2-(5-fluoro-4-(6-fluorobenzo[d]thiazol-2-yl)-7-hydroxy-3,3-dimethylindolin-1-yl)phenyl)urea]	0.41 µM	32.7 nM
CC1(C)CN(c2ccccc2NC(=O)Nc2ccc(OC(F)(F)F)cc2)c2c(O)cc(F)c(-c3nc4cc(F)ccc4s3)c21 [Example 151, 1-(2-(5-Fluoro-4-(5-fluorobenzo[d]thiazol-2-yl)-7-hydroxy-3,3-dimethylindolin-1-yl)phenyl)-3-(4-(trifluoromethoxy)phenyl)urea]	0.48 µM	24.1 nM
CC1(C)CN(c2ccccc2NC(=O)Nc2nc3ccc(F)cc3s2)c2c(O)cc(F)c(-c3nc4cc(F)ccc4s3)c21 [Example 152, 1-(2-(5-Fluoro-4-(5-fluorobenzo[d]thiazol-2-yl)-7-hydroxy-3,3-dimethylindolin-1-yl)phenyl)-3-(6-fluorobenzo[d]thiazol-2-yl)urea]	0.3 µM	25.4 nM
CC1(C)CN(c2ccccc2NC(=O)Nc2nc3ccc(Cl)nc3s2)c2c(O)cc(F)c(-c3nc4cc(F)ccc4s3)c21 [Example 153, 1-(5-Chlorothiazolo[5,4-b]pyridin-2-yl)-3-(2-(5-fluoro-4-(5-fluorobenzo[d]thiazol-2-yl)-7-hydroxy-3,3-dimethylindolin-1-yl)phenyl)urea]	0.23 µM	15.4 nM
CC1(C)CN(c2ccccc2NC(=O)Nc2nc3ccc(Cl)cc3s2)c2c(O)cc(F)c(-c3nc4cc(F)ccc4s3)c21 [Example 154, 1-(6-Chlorobenzo[d]thiazol-2-yl)-3-(2-(5-fluoro-4-(5-fluorobenzo[d]thiazol-2-yl)-7-hydroxy-3,3-dimethylindolin-1-yl)phenyl)urea]	0.35 µM	22.5 nM
CC1(C)CN(c2ccccc2NC(=O)Nc2nc3ccc(F)cc3s2)c2c(O)cc(F)c(-c3nc4ccc(Cl)cc4s3)c21 [Example 155, 1-(2-(4-(6-Chlorobenzo[d]thiazol-2-yl)-5-fluoro-7-hydroxy-3,3-dimethylindolin-1-yl)phenyl)-3-(6-fluorobenzo[d]thiazol-2-yl)urea]	0.6 µM	38 nM
CC1(C)CN(c2ccccc2NC(=O)Nc2nc3ccc(F)nc3s2)c2c(O)cc(F)c(-c3nc4cc(Cl)ccc4s3)c21 [Example 157, 1-(2-(4-(5-Chlorobenzo[d]thiazol-2-yl)-5-fluoro-7-hydroxy-3,3-dimethylindolin-1-yl)phenyl)-3-(5-fluorothiazolo[5,4-b]pyridin-2-yl)urea]	0.28 µM	18.7 nM
CC1(C)CN(c2ccccc2NC(=O)Nc2nc3ccc(F)cc3s2)c2c(O)cc(F)c(-c3ccc(C(F)(F)F)nc3)c21 [Example 158, 1-(2-(5-Fluoro-7-hydroxy-3,3-dimethyl-4-(6-(trifluoromethyl)pyridin-3-yl)indolin-1-yl)phenyl)-3-(6-fluorobenzo[d]thiazol-2-yl)urea]	0.2 µM	5.7 nM
CC1(C)CN(c2ccccc2NC(=O)Nc2ccc(OC(F)(F)F)cc2)c2c(O)cc(F)c(-c3ccc(F)cn3)c21 [Example 159, 1-(2-(5-Fluoro-4-(5-fluoropyridin-2-yl)-7-hydroxy-3,3-dimethylindolin-1-yl)phenyl)-3-(4-(trifluoromethoxy)phenyl)urea]	0.3 µM	7.4 nM
CC(C)(C)c1ncc(-c2c(F)cc(O)c3c2C(C)(C)CN3c2ccccc2NC(=O)Nc2ccc(OC(F)(F)F)cc2)cn1 [Example 160, 1-(2-(4-(2-(tert-Butyl)pyrimidin-5-yl)-5-fluoro-7-hydroxy-3,3-dimethylindolin-1-yl)phenyl)-3-(4-(trifluoromethoxy)phenyl)urea]	0.09 µM	13.1 nM
CC1(C)CN(c2ccccc2NC(=O)Nc2ccc(OC(F)(F)F)cc2)c2c(O)cc(F)c(-c3cc(F)nc(F)c3)c21 [Example 161, 1-(2-(4-(2,6-Difluoropyridin-4-yl)-5-fluoro-7-hydroxy-3,3-dimethylindolin-1-yl)phenyl)-3-(4-(trifluoromethoxy)phenyl)urea]	0.16 µM	6.6 nM
CC1(C)CN(c2ccccc2NC(=O)Nc2ccc(OC(F)(F)F)cc2)c2c(O)cc(F)c(-c3ccc(Cl)cn3)c21 [Example 162, 1-(2-(4-(5-Chloropyridin-2-yl)-5-fluoro-7-hydroxy-3,3-dimethylindolin-1-yl)phenyl)-3-(4-(trifluoromethoxy)phenyl)urea]	0.25 µM	6.4 nM
CC1(C)CN(c2ccccc2NC(=O)Nc2ccc(OC(F)(F)F)cc2)c2c(O)cc(F)c(-c3cnc(Cl)cn3)c21 [Example 163, 1-(2-(4-(5-Chloropyrazin-2-yl)-5-fluoro-7-hydroxy-3,3-dimethylindolin-1-yl)phenyl)-3-(4-(trifluoromethoxy)phenyl)urea]	0.26 µM	43.1 nM
CC1(C)CN(c2ccccc2NC(=O)Nc2ccc(OC(F)(F)F)cc2)c2c(O)cc(F)c(-c3ncc(F)cn3)c21 [Example 164, 1-(2-(5-Fluoro-4-(5-fluoropyrimidin-2-yl)-7-hydroxy-3,3-dimethylindolin-1-yl)phenyl)-3-(4-(trifluoromethoxy)phenyl)urea]	0.95 µM	10.8 nM
CC(C)(C)c1ccc(-c2c(F)cc(O)c3c2C(C)(C)CN3c2ccccc2NC(=O)Nc2ccc(OC(F)(F)F)cc2)cn1 [Example 165, 1-(2-(4-(6-(tert-Butyl)pyridin-3-yl)-5-fluoro-7-hydroxy-3,3-dimethylindolin-1-yl)phenyl)-3-(4-(trifluoromethoxy)phenyl)urea]	0.21 µM	26.8 nM
CC1(C)CN(c2ccccc2NC(=O)Nc2nc3ccc(F)cc3s2)c2c(O)cc(F)c(-c3ccc(C(F)(F)F)cn3)c21 [Example 168, 1-(2-(5-Fluoro-7-hydroxy-3,3-dimethyl-4-(5-(trifluoromethyl)pyridin-2-yl)indolin-1-yl)phenyl)-3-(6-fluorobenzo[d]thiazol-2-yl)urea]	0.45 µM	29.4 nM
CC1(C)CN(c2ccccc2NC(=O)Nc2ccc(OC(F)(F)F)cc2)c2c(O)ccc(-c3nc4cc(F)ccc4s3)c21 [Example 170, 1-(2-(4-(5-Fluorobenzo[d]thiazol-2-yl)-7-hydroxy-3,3-dimethylindolin-1-yl)phenyl)-3-(4-(trifluoromethoxy)phenyl)urea]	0.25 µM	14.1 nM
CC1(C)CN(c2ccccc2NC(=O)Nc2nc3ccc(F)nc3s2)c2c(O)cc(F)c(-c3nc4ccc(F)cc4s3)c21 [Example 178, 1-(2-(5-Fluoro-4-(6-fluorobenzo[d]thiazol-2-yl)-7-hydroxy-3,3-dimethylindolin-1-yl)phenyl)-3-(5-fluorothiazolo[5,4-b]pyridin-2-yl)urea]	0.74 µM	17.9 nM
COc1ccc2nc(NC(=O)Nc3ccccc3N3CC(C)(C)c4c(-c5nc6ccc(F)cc6s5)c(F)cc(O)c43)sc2c1 [Example 179, 1-(2-(5-Fluoro-4-(6-fluorobenzo[d]thiazol-2-yl)-7-hydroxy-3,3-dimethylindolin-1-yl)phenyl)-3-(6-methoxybenzo[d]thiazol-2-yl)urea]	0.49 µM	22.6 nM
CC1(C)CN(c2ccccc2NC(=O)Nc2csc(C(F)(F)F)n2)c2c(O)cc(F)c(-c3nc4cc(Cl)ccc4s3)c21 [Example 180, 1-(2-(4-(5-Chlorobenzo[d]thiazol-2-yl)-5-fluoro-7-hydroxy-3,3-dimethylindolin-1-yl)phenyl)-3-(2-(trifluoromethyl)thiazol-4-yl)urea]	0.56 µM	28.4 nM
CC1(C)CN(c2ccccc2NC(=O)Nc2csc(Cl)n2)c2c(O)cc(F)c(-c3nc4cc(F)ccc4s3)c21 [Example 181, 1-(2-Chlorothiazol-4-yl)-3-(2-(5-fluoro-4-(5-fluorobenzo[d]thiazol-2-yl)-7-hydroxy-3,3-dimethylindolin-1-yl)phenyl)urea]	0.49 µM	9.7 nM
CC1(C)CN(c2ccccc2NC(=O)Nc2nc3ccc(F)nc3s2)c2c(O)cc(F)c(-c3nc4cc(F)ccc4s3)c21 [Example 182, 1-(2-(5-Fluoro-4-(5-fluorobenzo[d]thiazol-2-yl)-7-hydroxy-3,3-dimethylindolin-1-yl)phenyl)-3-(5-fluorothiazolo[5,4-b]pyridin-2-yl)urea]	0.51 µM	15.7 nM
Cn1nc(C(F)(F)F)cc1-c1c(F)cc(O)c2c1C(C)(C)CN2c1ccccc1NC(=O)Nc1ccc(OC(F)(F)F)cc1 [Example 183, 1-(2-(5-Fluoro-7-hydroxy-3,3-dimethyl-4-(1-methyl-3-(trifluoromethyl)-1H-pyrazol-5-yl)indolin-1-yl)phenyl)-3-(4-(trifluoromethoxy)phenyl)urea]	0.21 µM	11.3 nM
